{
  "source": "patent US20070105721A1",
  "about": "“Vinylogous 4-Hpyrones and their use in promoting plant growth” (priority 2003, published 2007)",
  "format_in_all_cases": "in vivo",
  "key": {"[1]": {"test_system": "Brassica tournefortii (wild turnip)", "experiment": "Weed germination enhancement; also: tested at 0.1 ppm", "conditions": "compound 1a at 100 ppb", "procedure": "(§1) For each species, four replicates of 25 seeds were placed on Petri dishes lined with seed germination paper. The Petri dishes were moistened with de-ionised water (control) or 100 ppb compound 1a. All species were incubated in constant darkness at 12/12 hr alternating temperatures of 7/18° C., 13/26° C. or 18/33° C. Germination (radicle emergence) was recorded every 2-3 days until germination had ceased."}, "[2]": {"test_system": "Acetosa vesicaria (ruby dock)", "experiment": "Weed germination enhancement", "conditions": "compound 1a at 100 ppb", "procedure": "as §1"}, "Avena fatua (wild oats)": {"test_system": "Avena fatua (wild oats)", "experiment": "Weed germination enhancement", "conditions": "compound 1a at 100 ppb; mean ± standard error", "procedure": "as §1"}, "[3]": {"test_system": "Grand Rapids Lettuce seeds (Waltham strain)", "experiment": "Grand Rapids bioassay", "procedure": "Grand Rapids Lettuce seeds (Waltham strain) were obtained from R.B. Dessert Seed Co. and were frozen in sachets until use. For testing of aqueous samples, 2.5 mL of test solution was applied to three replicates of 40-50 seeds in Petri dishes (90 mm) lined with two layers of Whatman No. 1 filter paper (7 cm). Millipore filtered water (MP water) was used as a control for each experiment and dilutions of each sample were used to ensure the optimum concentration range for activity. Fractions were reconstituted to their original concentration (before fractionation) and dilutions were made using MP water. Petri dishes were sealed with a layer of plastic wrap, and stored in a light proof container. All manipulations involving the seed were carried out in a dark room and germinants, based on the appearance of a radicle, were scored after 48 hours incubation."}},
  "data": [
    {"compound": "Cc1c2ccocc-2oc1=O", "note": "[Compound 1a, 3-Methyl-2H-furo[2,3-c]pyran-2-one]", "values": [
      {"measurement": "germination percentage, Brassica tournefortii (wild turnip)", "setting": "[1]", "result": "92.0 ± 2.8", "unit": "b %"},
      {"measurement": "germination percentage, Acetosa vesicaria (ruby dock)", "setting": "[2]", "result": "30.0 ± 7.6", "unit": "b %"},
      {"measurement": "germination percentage, Avena fatua (wild oats)", "setting": "Avena fatua (wild oats)", "result": "38.0 ± 4.3", "unit": "b %"},
      {"measurement": "Grand Rapids germination", "setting": "[3]; 1/1 000 000 dilution of compound 1a 1 mg/L", "result": "60.9 (2.5) %"},
      {"measurement": "Grand Rapids germination", "setting": "[3]; 1/10 000 dilution (of neat SW; of compound 1a 1 mg/L)", "result": "96.4 (0.6) %"},
      {"measurement": "Grand Rapids germination", "setting": "[3]; 1/10 dilution (of neat SW; of compound 1a 1 mg/L)", "result": "98.4 (0.9) %"},
      {"measurement": "Grand Rapids germination", "setting": "[3]; 1/100 000 dilution of compound 1a 1 mg/L", "result": "76.9 (1.5) %"},
      {"measurement": "Grand Rapids germination", "setting": "[3]; 1/100 dilution (of neat SW; of compound 1a 1 mg/L)", "result": "98.4 (1.6) %"},
      {"measurement": "level at which compound 1a is active in promoting germination", "setting": "[3]; 1/100 dilution of the estimated content of neat smoke water (1 mg per 10 000 L)", "result": "10^−10 mol/L"},
      {"measurement": "Grand Rapids germination", "setting": "[3]; 1/1000 dilution (of neat SW; of compound 1a 1 mg/L)", "result": "97.0 (0.5) %"},
      {"measurement": "Grand Rapids germination", "setting": "[3]; Neat (neat SW; compound 1a 1 mg/L), mean (SEM)", "result": "99.4 (0.6) %"},
      {"measurement": "inhibition of germination", "setting": "[3]; at higher concentrations of 1a compared to the amount in smoke water", "result": "no inhibition of germination is observed"},
      {"measurement": "Germination, Grand Rapids", "setting": "[3]; compounds isolated from smoke, mean (SEM)", "result": "99.3 (0.7) %"}
    ]}
  ]
}
